Measurements taken from publication PMC5761851, “Application of a phenotypic drug discovery strategy to identify biological and chemical starting points for inhibition of TSLP production in lung epithelial cells” (PLoS ONE, 2018).
Several values for one entry are separate records, joined by “and”; a condition that tells them apart may be missing. Equal entries are not always repeated.

Legend:
Assay in all cases: kinase selectivity panel
Type in all cases: biochemical
IRAK1 = biological target: T1, IRAK1 (Homo sapiens, UniProt P51617); settings: read-out: percentage of control activity (POC), IRAK1
T1 construct: purchased Eurofins Pharma Discovery Services (KinaseProfiler; Cerep BioPrint panel)
Procedure: (§1) Kinase selectivity was evaluated at Eurofins Pharma Discovery Services using a selection of 125 representative kinases tested at a concentration of 10 μM in duplicate (S3 Table). IC50 values for selected activities were further characterized at 9 duplicate concentrations. DNA-PK activity was determined at the SelectScreen® Biochemical kinase Profiling Service of Thermo Fisher Scientific.

MAPK1 = biological target: T2, MAPK1 (Homo sapiens, UniProt P27361); settings: read-out: percentage of control activity (POC), MAPK1
T2 construct: purchased Eurofins Pharma Discovery Services (KinaseProfiler; Cerep BioPrint panel)
Procedure: as §1

TAK1 = biological target: T3, TAK1 (Homo sapiens, UniProt O43318); settings: read-out: percentage of control activity (POC), TAK1
T3 construct: purchased Eurofins Pharma Discovery Services (KinaseProfiler; Cerep BioPrint panel)
T3 sequence (O43318 1-303 limits assumed): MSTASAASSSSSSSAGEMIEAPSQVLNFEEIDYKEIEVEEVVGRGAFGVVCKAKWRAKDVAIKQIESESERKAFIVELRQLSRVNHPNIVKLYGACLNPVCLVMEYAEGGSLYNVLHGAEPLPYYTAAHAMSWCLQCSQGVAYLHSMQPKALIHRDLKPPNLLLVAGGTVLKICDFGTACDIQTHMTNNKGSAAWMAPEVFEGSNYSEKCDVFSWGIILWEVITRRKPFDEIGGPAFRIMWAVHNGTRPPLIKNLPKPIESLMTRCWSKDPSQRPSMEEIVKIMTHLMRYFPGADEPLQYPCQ
Procedure: as §1

JNK1α1 = biological target: T4, JNK1α1 (Homo sapiens, UniProt P45983); settings: read-out: percentage of control activity (POC), JNK1α1
T4 construct: purchased Eurofins Pharma Discovery Services (KinaseProfiler; Cerep BioPrint panel)
Procedure: as §1

Rsk4 = biological target: T5, Rsk4 (Homo sapiens, UniProt Q9UK32); settings: read-out: percentage of control activity (POC), Rsk4
T5 construct: purchased Eurofins Pharma Discovery Services (KinaseProfiler; Cerep BioPrint panel)
Procedure: as §1

SRPK1 = biological target: T6, SRPK1 (Homo sapiens, UniProt Q96SB4); settings: read-out: percentage of control activity (POC), SRPK1
T6 construct: purchased Eurofins Pharma Discovery Services (KinaseProfiler; Cerep BioPrint panel)
Procedure: as §1

CDK9/cyclin T1 = biological target: T7, CDK9/cyclin T1 (Homo sapiens, UniProt P50750); settings: read-out: percentage of control activity (POC), CDK9/cyclin T1
T7 construct: purchased Eurofins Pharma Discovery Services (KinaseProfiler; Cerep BioPrint panel)
Procedure: as §1

GSK3β = biological target: T8, GSK3β (Homo sapiens, UniProt P49841); settings: read-out: percentage of control activity (POC), GSK3β
T8 construct: purchased Eurofins Pharma Discovery Services (KinaseProfiler; Cerep BioPrint panel)
Procedure: as §1

Aurora-A = biological target: T9, Aurora-A (Homo sapiens, UniProt O14965); settings: read-out: percentage of control activity (POC), Aurora-A
T9 construct: purchased Eurofins Pharma Discovery Services (KinaseProfiler; Cerep BioPrint panel)
T9 sequence (O14965 1-403): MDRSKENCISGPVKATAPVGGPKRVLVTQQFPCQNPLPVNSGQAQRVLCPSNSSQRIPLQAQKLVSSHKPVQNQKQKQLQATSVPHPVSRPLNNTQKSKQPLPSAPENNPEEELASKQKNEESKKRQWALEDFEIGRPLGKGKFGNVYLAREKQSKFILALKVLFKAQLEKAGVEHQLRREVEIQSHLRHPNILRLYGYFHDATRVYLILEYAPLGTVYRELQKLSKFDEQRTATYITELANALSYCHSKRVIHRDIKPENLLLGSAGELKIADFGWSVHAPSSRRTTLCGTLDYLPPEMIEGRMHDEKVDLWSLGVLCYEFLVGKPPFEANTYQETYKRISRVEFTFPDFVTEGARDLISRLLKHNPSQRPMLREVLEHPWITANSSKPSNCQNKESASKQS
Procedure: as §1

TBK1 = biological target: T10, TBK1 (Homo sapiens, UniProt Q9UHD2); settings: read-out: percentage of control activity (POC), TBK1
T10 construct: purchased Eurofins Pharma Discovery Services (KinaseProfiler; Cerep BioPrint panel)
T10 sequence (Q9UHD2 1-729): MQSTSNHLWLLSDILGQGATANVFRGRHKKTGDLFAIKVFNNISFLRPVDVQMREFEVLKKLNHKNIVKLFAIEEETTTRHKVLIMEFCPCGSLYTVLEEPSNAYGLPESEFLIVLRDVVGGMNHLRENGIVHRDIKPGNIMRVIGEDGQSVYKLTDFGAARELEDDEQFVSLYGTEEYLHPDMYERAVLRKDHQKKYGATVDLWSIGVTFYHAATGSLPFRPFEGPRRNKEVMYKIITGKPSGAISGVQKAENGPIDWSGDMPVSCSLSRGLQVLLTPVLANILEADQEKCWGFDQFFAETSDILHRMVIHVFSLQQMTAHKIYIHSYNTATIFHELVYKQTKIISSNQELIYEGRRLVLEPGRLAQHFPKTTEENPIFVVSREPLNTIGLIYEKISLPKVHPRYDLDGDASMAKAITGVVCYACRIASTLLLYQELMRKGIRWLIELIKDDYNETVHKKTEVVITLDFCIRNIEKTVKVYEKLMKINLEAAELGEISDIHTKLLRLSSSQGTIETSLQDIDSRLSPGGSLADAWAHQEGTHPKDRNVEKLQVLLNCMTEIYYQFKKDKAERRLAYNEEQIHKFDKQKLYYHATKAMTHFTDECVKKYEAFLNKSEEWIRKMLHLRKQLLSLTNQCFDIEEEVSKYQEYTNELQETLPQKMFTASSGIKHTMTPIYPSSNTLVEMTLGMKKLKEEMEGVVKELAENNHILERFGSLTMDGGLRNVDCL
Procedure: as §1

mTOR = biological target: T11, mTOR (Homo sapiens, UniProt P42345); settings: for remaining activity at 10 µM: read-out: percentage of control activity (POC), mTOR
T11 construct: Eurofins Pharma Discovery Services (contract assay service)
Procedure: as §1

IRAK4 = biological target: T12, IRAK4 (Homo sapiens, UniProt Q9NWZ3); settings: read-out: percentage of control activity (POC), IRAK4
T12 construct: purchased Eurofins Pharma Discovery Services (KinaseProfiler; Cerep BioPrint panel)
T12 sequence (Q9NWZ3 1-460): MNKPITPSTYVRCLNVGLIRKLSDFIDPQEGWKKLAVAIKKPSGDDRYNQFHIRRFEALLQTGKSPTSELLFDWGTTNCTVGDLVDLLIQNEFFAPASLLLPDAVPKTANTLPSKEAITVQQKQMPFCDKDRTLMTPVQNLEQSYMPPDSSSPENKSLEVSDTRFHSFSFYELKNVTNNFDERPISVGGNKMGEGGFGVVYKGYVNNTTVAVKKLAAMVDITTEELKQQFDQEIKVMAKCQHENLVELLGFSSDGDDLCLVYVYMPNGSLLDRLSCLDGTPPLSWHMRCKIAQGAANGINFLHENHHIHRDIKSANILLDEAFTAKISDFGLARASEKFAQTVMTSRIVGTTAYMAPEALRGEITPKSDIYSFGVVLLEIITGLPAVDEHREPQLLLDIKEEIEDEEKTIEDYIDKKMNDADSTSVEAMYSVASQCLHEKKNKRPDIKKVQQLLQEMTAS
Procedure: as §1

T8 sequence (P49841 whole entry): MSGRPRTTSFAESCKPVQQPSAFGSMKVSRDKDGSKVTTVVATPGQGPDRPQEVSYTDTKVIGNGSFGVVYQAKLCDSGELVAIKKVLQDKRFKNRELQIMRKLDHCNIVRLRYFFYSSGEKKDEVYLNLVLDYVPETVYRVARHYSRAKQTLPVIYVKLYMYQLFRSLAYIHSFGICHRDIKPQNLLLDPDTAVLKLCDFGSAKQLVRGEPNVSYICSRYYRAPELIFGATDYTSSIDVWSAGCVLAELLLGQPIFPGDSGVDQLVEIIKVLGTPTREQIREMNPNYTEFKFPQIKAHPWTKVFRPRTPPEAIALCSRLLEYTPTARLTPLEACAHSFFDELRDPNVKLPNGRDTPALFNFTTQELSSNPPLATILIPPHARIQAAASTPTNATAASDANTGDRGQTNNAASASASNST
T1 sequence (P51617 whole entry): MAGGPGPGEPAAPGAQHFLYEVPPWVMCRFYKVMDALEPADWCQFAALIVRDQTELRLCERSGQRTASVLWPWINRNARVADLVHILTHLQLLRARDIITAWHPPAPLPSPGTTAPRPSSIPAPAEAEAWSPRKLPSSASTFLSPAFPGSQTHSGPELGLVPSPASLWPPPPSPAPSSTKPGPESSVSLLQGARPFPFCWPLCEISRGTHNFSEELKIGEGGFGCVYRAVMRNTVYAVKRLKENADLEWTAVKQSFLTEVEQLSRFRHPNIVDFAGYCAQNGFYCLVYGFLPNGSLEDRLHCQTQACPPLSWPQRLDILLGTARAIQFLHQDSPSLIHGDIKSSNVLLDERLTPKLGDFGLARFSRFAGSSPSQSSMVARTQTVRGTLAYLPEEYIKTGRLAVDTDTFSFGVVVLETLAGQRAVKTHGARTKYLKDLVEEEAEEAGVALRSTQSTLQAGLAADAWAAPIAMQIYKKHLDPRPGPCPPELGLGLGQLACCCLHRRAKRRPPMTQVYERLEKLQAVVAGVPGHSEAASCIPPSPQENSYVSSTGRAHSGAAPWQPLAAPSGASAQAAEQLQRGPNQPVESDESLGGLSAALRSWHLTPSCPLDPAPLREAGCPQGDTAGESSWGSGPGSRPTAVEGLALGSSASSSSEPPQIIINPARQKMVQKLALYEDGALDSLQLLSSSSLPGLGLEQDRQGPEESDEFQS
T5 sequence (Q9UK32 whole entry): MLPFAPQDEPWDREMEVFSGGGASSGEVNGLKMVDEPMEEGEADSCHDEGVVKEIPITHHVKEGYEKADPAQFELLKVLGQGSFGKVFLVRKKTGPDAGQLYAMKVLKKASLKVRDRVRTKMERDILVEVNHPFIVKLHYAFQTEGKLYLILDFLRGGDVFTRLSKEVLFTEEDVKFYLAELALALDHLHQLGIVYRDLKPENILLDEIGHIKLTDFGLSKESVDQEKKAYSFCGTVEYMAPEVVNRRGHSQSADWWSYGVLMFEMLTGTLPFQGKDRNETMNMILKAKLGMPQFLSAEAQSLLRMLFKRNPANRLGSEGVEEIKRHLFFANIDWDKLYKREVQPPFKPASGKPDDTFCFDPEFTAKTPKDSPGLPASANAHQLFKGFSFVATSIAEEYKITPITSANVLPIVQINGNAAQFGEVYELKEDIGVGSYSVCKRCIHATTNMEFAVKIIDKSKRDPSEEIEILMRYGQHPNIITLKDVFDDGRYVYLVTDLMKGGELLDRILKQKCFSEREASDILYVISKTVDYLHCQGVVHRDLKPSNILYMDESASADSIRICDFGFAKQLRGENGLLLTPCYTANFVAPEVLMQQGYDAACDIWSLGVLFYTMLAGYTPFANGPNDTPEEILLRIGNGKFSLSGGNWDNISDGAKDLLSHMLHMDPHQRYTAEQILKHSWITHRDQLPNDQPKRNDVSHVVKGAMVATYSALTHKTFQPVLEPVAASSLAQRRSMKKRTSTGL
T7 sequence (P50750 whole entry): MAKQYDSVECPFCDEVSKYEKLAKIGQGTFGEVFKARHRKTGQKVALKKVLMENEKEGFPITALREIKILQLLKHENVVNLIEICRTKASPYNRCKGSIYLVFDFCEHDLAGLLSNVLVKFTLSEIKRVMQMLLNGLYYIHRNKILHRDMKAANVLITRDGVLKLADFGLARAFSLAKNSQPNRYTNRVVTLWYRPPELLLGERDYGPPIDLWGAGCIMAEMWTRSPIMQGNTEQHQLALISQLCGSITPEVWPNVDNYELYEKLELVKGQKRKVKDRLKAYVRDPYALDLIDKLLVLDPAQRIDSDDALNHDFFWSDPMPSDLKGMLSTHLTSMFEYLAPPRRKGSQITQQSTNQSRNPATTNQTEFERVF
T7 sequence (O60563 whole entry partner): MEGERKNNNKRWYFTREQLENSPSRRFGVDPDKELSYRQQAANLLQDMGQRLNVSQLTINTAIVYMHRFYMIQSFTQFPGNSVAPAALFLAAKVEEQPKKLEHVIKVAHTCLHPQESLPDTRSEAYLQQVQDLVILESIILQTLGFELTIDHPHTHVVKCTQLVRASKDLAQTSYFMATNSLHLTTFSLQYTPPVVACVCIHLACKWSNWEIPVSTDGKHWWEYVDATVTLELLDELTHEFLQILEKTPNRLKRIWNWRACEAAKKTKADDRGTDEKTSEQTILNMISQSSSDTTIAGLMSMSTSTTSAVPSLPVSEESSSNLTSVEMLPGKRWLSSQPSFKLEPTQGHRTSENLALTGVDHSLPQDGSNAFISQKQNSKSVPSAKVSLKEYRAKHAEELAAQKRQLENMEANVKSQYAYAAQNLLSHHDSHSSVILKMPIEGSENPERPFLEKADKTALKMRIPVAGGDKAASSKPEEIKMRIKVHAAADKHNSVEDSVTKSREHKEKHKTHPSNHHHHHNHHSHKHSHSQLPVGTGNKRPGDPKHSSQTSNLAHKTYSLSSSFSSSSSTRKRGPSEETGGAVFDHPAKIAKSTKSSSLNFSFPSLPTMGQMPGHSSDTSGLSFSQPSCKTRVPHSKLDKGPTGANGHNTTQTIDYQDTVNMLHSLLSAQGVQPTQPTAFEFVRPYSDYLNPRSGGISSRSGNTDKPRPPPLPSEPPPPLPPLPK
T6 sequence (Q96SB4 whole entry): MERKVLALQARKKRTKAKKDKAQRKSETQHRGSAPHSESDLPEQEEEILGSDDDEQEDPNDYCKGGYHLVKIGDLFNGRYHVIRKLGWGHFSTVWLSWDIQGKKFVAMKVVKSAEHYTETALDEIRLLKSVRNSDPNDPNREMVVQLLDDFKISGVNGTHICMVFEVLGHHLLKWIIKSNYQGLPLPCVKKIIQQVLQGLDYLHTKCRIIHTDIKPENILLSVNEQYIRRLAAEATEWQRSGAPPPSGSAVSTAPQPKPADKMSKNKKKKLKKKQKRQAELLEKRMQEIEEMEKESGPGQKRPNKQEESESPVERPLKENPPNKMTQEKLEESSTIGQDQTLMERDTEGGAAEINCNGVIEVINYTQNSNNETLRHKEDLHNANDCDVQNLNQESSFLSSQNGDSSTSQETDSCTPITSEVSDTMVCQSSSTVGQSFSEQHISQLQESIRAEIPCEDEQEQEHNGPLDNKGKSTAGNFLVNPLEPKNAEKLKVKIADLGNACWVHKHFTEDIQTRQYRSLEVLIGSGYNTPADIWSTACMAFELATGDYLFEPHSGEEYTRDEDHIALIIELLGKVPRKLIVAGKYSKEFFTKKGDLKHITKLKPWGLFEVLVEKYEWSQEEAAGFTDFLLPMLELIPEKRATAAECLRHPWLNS
T4 sequence (P45983 1-384 isoform P45983-2): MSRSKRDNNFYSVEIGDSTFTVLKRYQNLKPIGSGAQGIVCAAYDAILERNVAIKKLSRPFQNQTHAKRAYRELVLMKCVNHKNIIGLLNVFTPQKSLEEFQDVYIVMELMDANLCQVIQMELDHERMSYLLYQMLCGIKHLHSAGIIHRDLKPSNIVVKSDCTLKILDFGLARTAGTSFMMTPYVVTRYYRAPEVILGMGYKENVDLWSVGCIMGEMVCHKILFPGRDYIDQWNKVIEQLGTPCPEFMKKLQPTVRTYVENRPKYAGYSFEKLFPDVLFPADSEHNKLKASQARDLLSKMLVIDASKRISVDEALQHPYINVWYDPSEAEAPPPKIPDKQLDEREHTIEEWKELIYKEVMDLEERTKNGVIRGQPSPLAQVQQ
T2 sequence (P27361 whole entry): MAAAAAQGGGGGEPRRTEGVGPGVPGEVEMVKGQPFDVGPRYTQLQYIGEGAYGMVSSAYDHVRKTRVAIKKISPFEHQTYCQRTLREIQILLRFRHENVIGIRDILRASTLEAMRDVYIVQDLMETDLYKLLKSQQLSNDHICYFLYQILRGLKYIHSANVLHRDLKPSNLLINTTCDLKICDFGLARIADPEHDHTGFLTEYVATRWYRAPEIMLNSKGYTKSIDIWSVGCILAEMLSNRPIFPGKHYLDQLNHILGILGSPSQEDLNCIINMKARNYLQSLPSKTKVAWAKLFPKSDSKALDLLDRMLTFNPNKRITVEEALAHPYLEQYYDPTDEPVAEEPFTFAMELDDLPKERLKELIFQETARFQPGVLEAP

CC(C)(C)N1CCC(c2cc(-c3ccc(F)cc3Cl)c3cc[n+]([O-])c(-c4c(Cl)cccc4Cl)c3n2)CC1 [compound 2]
remaining activity at 10 µM (IRAK1): 102% | remaining activity at 10 µM (MAPK1): 105% | remaining activity at 10 µM (TAK1): 105% | remaining activity at 10 µM (JNK1α1): 97% | remaining activity at 10 µM (Rsk4): 102% | remaining activity at 10 µM (SRPK1): 103% | remaining activity at 10 µM (CDK9/cyclin T1): 96% | remaining activity at 10 µM (GSK3β): 99% | remaining activity at 10 µM (Aurora-A): 112% | remaining activity at 10 µM (TBK1): 108% | remaining activity at 10 µM (mTOR; 10 μM): 101% | remaining activity at 10 µM (IRAK4): 95%

Cc1ccc(C(=O)NCC2CC2)cc1-c1ccc2c(c1)NC(=O)C21CCCC1 [compound 3]
remaining activity at 10 µM (IRAK1): 91% | remaining activity at 10 µM (MAPK1): 88% | remaining activity at 10 µM (TAK1): 97% | remaining activity at 10 µM (JNK1α1): 96% | remaining activity at 10 µM (Rsk4): 103% | remaining activity at 10 µM (SRPK1): 92% | remaining activity at 10 µM (CDK9/cyclin T1): 85% | remaining activity at 10 µM (GSK3β): 104% | remaining activity at 10 µM (Aurora-A): 96% | remaining activity at 10 µM (TBK1): 92% | remaining activity at 10 µM (mTOR; 10 μM): 99% | remaining activity at 10 µM (IRAK4): 92%

Cn1cc(-c2cccc(-c3nc(C(=O)NC4C5CC6CC4CC(O)(C6)C5)c(N)nc3N)c2)cn1 (centres unmarked) [compound 4]
remaining activity at 10 µM (IRAK1): 89% | remaining activity at 10 µM (MAPK1): 96% | remaining activity at 10 µM (TAK1): 97% | remaining activity at 10 µM (JNK1α1): 92% | remaining activity at 10 µM (Rsk4): 110% | remaining activity at 10 µM (SRPK1): 92% | remaining activity at 10 µM (CDK9/cyclin T1): 95% | remaining activity at 10 µM (GSK3β): 105% | remaining activity at 10 µM (Aurora-A): 89% | remaining activity at 10 µM (TBK1): 90% | inhibition at 10 µM (mTOR; 10 μM): 87% | remaining activity at 10 µM (mTOR; 10 μM): 13% | IC50 (mTOR; biochemical dose response, duplicate, read-out: Inhibition of indicated activity (IC50, μM): mTOR): ~1 µM and 0.964 µM | remaining activity at 10 µM (IRAK4): 82%

CS(=O)(=O)N1CCN(c2ccc(Nc3ncc(C(N)=O)c(NC4CC4)n3)cc2)CC1 [compound 5]
remaining activity at 10 µM (IRAK1): 20% | remaining activity at 10 µM (MAPK1): 34% | remaining activity at 10 µM (TAK1): 1% | remaining activity at 10 µM (JNK1α1): 3% | remaining activity at 10 µM (Rsk4): 2% | remaining activity at 10 µM (SRPK1): 83% | remaining activity at 10 µM (CDK9/cyclin T1): 56% | remaining activity at 10 µM (GSK3β): 25% | remaining activity at 10 µM (Aurora-A): 2% | remaining activity at 10 µM (TBK1): -1% | remaining activity at 10 µM (mTOR; 10 μM): 96% | remaining activity at 10 µM (IRAK4): 13%

COc1c(NC(=O)c2ccc(C)c(-c3nnc4c(NCC(C)(C)C)nccn34)c2)cc(C(C)(C)C)cc1NS(C)(=O)=O [compound 7, reference compound]
remaining activity at 10 µM (IRAK1): 95% | remaining activity at 10 µM (MAPK1): 85% | remaining activity at 10 µM (TAK1): 103% | remaining activity at 10 µM (JNK1α1): 96% | remaining activity at 10 µM (Rsk4): 131% | remaining activity at 10 µM (SRPK1): 100% | remaining activity at 10 µM (CDK9/cyclin T1): 97% | remaining activity at 10 µM (GSK3β): 117% | remaining activity at 10 µM (Aurora-A): 110% | remaining activity at 10 µM (TBK1): 103% | remaining activity at 10 µM (mTOR; 10 μM): 96% | remaining activity at 10 µM (IRAK4): 118%
